{"source": "patent EP4032530B1", "about": "“PROLONGED-RELEASE FURAZIDIN COMPOSITION” (Adamed Pharma S.A., priority 2021, dated 2022)", "key": {"[1]": {"test": "Phase I pivotal food effect pharmacokinetic study FUR-PK-03-19 (755/19)", "assay_type": "in vivo, human", "details": "PK phase I studies", "description": "Study title: Randomized, open-label, three-period, cross-over, food effect pharmacokinetic study comparing bioavailability of furazidin, prolonged-release tablets, 200 mg having a composition of IR/1+MR/1 according to Example 1 in healthy subjects in different fed conditions.\nAim of the study: The main study objective was to evaluate the pharmacokinetic properties and to compare the bioavailability of the Test product in healthy volunteers under different fed conditions.\nStudy conduct: In this bioavailability study, the pharmacokinetic profile was tested for the Test formulation (prolonged-release bilayer tablet, IR/1+MR/1) having a strength of 200 mg furazidin. The bioavailability study was carried out under different fed conditions (after a high-protein meal or after a high-fat, high-calorie meal) and in fasting state in 30 healthy subjects. On the day of dosing, the subjects received randomly after an overnight fast a single dose of the modified-release formulation, administered on empty stomach (fasting conditions, Treatment A) or after a high-protein meal (Treatment B) or after a high-fat, high-calorie meal (Treatment C), each time with 240 mL of water. For each subject, there were 3 dosing periods, separated by a washout period of 7 days. […]\nThe pharmacokinetic data for plasma and urine were statistically analysed in 29 subjects. […]"}, "[2]": {"details": "upon oral administration; cited from earlier work"}, "Escherichia coli": {"test_system": "Escherichia coli", "details": "constant level, unchanged for several decades; cited from earlier work"}}}
{"smiles": "O=C1CN(/N=C/C=C/c2ccc([N+](=O)[O-])o2)C(=O)N1", "note": "[furazidin]", "values": [{"measurement": "site of absorption", "setting": "[1]", "value": "mainly absorbed in the upper part of the small intestine"}, {"measurement": "half-life", "setting": "[2]", "value": "below 1 hour"}, {"measurement": "susceptibility of Escherichia coli to furazidin", "setting": "Escherichia coli", "value": "approx. 90%"}]}
